The text below walks through data of patent publication US20060148760A1, “Method for the sysnthesis of compounds of formula I and their uses thereof” (TransTech Pharma, priority 2000, published 2006).

Where a name gives a salt, the structure may show the parent alone.

T1 sequence (Q15109 23-342 limits assumed): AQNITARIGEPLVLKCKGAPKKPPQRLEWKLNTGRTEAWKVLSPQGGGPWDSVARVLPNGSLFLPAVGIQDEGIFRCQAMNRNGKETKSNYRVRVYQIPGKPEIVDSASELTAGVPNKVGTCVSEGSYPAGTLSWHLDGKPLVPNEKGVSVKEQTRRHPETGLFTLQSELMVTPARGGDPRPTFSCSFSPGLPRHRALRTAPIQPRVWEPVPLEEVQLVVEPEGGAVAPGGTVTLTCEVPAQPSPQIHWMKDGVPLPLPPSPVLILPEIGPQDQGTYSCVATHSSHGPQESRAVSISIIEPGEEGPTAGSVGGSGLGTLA

This test addresses T1, S-100b/RAGE interaction (Homo sapiens, UniProt Q15109).
T1 construct: generate soluble RAGE (sRAGE) comprised of the V and C domains
Nature of the test: ELISA assay, S-100b binding to sRAGE. The settings on record: plate-bound S100b, concentration at which 50% signal is inhibited. The procedure:
S100b, β-amyloid and CML (500 ng/100 μL/well) in 100 mM sodium bicarbonate/sodium carbonate buffer (pH 9.8) is loaded onto the wells of a NUNC Maxisorp flat bottom 96—well microtitre plate. The plate is incubated at 4° C. overnight. The wells are aspirated and treated with 50 mM imidazole buffer saline (pH 7.2) (with 1 mM CaCl2/MgCl2) containing 1% bovine serum albumin (BSA) (300 μL/well) for two h at 37° C.
Test compounds are dissolved in nanopure water (concentration: 10-100 μM). DMSO may be used as co-solvent. 25 μL of test compound solution in 2% DMSO is added, along with 75 μL sRAGE (4.0×10^−4 mg/mL FAC) to each well and samples are incubated for 1 h at 37° C. The wells are washed 3 times with 155 mM NaCl pH 7.2 buffer saline and are soaked 10 seconds between each wash. Non-radioactive binding is performed by adding:
10 μL Biotinylated goat F(ab′)2 Anti-mouse IgG. (8.0×10^−4 mg/mL, FAC)
10 μL Alk-phos-Sterptavidin (3×10^−3 mg/mL FAC)
10 μL Polyclonal antibody for sRAGE (FAC 6.0×10^−3 mg/mL) to 5 mL 50 mM imidazole buffer saline (pH 7.2) containing 0.2% bovine serum albumin and 1 mM CaCl2. The mixture is incubated for 30 minutes at 37° C. 100 μL complex is added to each well and incubation is allowed to proceed at rt for 1 h. Wells are washed 3 times with wash buffer and soaked 10 s between each wash. 100 μL 1 mg/mL (pNPP) in 1 M diethanolamine (pH adjusted to 9.8 with HCl) is added. […] The reaction is quenched with 10 μL of stop solution (0.5 N NaOH in 50% ethanol) and the absorbance is measured spectrophotometrically with a microplate reader at 405 nm.
(ELISA stands for enzyme-linked immunosorbent assay.)
Broadly, the IC50 is the concentration that gives 50% inhibition. A low value points to inhibition by little substance. `CCCCOc1cc(C(=O)OCCN(CC)CC)ccc1NC(=O)[C@@H](Cc1ccc(OCc2ccccc2)cc1)NC(C)=O` [Example 26, (R)-3-(4-Benzyloxyphenyl)-2-acetylaminopropionic Acid 4-Diethylaminoethoxycarbonyl-2-butoxyaniline Amide] came in with an IC50 of 5.6 µM.

`CCCCOc1cc(C(=O)OCCN(CC)CC)ccc1NC(=O)[C@@H](Cc1ccc(OCc2ccccc2)cc1)NS(=O)(=O)c1ccccc1` [Example 16, (R)-3-(4-Benzyloxyphenyl)-2-phenylsulfonylaminopropionic Acid 4-Diethylaminoethoxycarbonyl-2-butoxyaniline Amide] displayed an IC50 of 20 to 30 µM.

`CCCCOc1cc(C(=O)OCCN(CC)CC)ccc1NC(=O)[C@@H](Cc1ccc(OCc2ccccc2)cc1)NCc1ccccc1` [Example 14, (R)-3-(4-Benzyloxyphenyl)-2-benzylaminopropionic Acid 4-Diethylaminoethoxycarbonyl-2-butoxyaniline Amide] registered an IC50 of 2.8 µM.

For `CCCCOc1cc(C(=O)OCCN(CC)CC)ccc1NC(=O)[C@@H](Cc1ccc2ccccc2c1)NC(C)=O` [Example 25, (R)-3-(2-Naphthyl)-2-acetylaminopropionic Acid 4-Diethylaminoethoxycarbonyl-2-butoxyaniline Amide], the IC50 is 15 µM.

The compound `CCCCOc1cc(C(=O)OCCN(CC)CC)ccc1NC(=O)[C@@H](Cc1ccccc1)NC(=O)OC(C)(C)C` [Example 10, (R)-3-Phenyl-2-tert-butoxycarbonylaminopropionic Acid 4-Diethylaminoethoxycarbonyl-2-butoxyaniline Amide] yielded an IC50 of 0.95 µM.

Compound `CCCCOc1cc(C(=O)OCCN(CC)CC)ccc1NC(=O)[C@@H](Cc1ccc(OCc2ccccc2)cc1)NC(=O)NCC` [Example 17, (R)-3-(4-Benzyloxyphenyl)-2-ethylcarbamoylaminopropionic Acid 4-Diethylaminoethoxycarbonyl-2-butoxyaniline Amide] displayed an IC50 of 10 µM.

Compound `CCN(CC)CCOC(=O)c1ccc(NC(=O)[C@@H](Cc2ccc(OCc3ccccc3)cc2)NC(=O)OC(C)(C)C)c(OCC(C)C)c1` [Example 8, (R)-3-(4-Benzyloxyphenyl)-2-tert-butoxycarbonylaminopropionic Acid 4-Diethylaminoethoxycarbonyl-2-isobutoxyaniline Amide] registered an IC50 of 2 µM.

Consider `CCCCOc1cc(C(=O)OCCN(CC)CC)ccc1NC(=O)[C@H](N)Cc1ccccc1` [Example 11, (R)-3-Phenyl-2-aminopropionic Acid 4-Diethylaminoethoxycarbonyl-2-butoxyaniline Amide Dihydrochloride], for which the IC50 lay in the range of 10 to 30 µM.

With `CCN(CC)CCOC(=O)c1ccc(NC(=O)[C@H](N)Cc2ccc(OCc3ccccc3)cc2)c(OCc2ccco2)c1` [Example 24, (R)-3-(4-Benzyloxyphenyl)-2-aminopropionic Acid 4-Diethylaminoethoxycarbonyl)-2-(2-furylmethoxy)aniline Amide Dihydrochloride], the IC50 was 2.7 µM.

The compound `CCN(CC)CCOC(=O)c1ccc(NC(=O)[C@@H](Cc2ccc(OCc3ccccc3)cc2)NC(=O)OC(C)(C)C)c(OCc2ccco2)c1` [Example 23, (R)-3-(4-Benzyloxyphenyl)-2-tert-butoxycarbonylaminopropionic Acid 4-Diethylaminoethoxycarbonyl-2-(2-furylmethoxy)aniline Amide] had a half-maximal inhibitory concentration (IC50) of 15.5 µM.

As for `COC(=O)c1ccc(NC(=O)[C@@H](Cc2ccc(OCc3ccccc3)cc2)NC(=O)OC(C)(C)C)c(O)c1` [Example 6, (R)-3-(4-Benzyloxyphenyl)-2-tert-butoxycarbonylaminopropionic Acid 4-Methoxycarbonyl-2-hydroxyaniline Amide], the IC50 came to 6.3 µM.

On to `CCN(CC)CCOC(=O)c1ccc(NC(=O)[C@H](N)Cc2ccc(OCc3ccccc3)cc2)c(OCC(C)C)c1` [Example 9, (R)-3-(4-Benzyloxyphenyl)-2-aminopropionic Acid 4-Diethylaminoethoxycarbonyl-2-isobutoxyaniline Amide Dihydrochloride], for which the IC50 was 1.6 µM.
